Columns and labels:
rat [1] = conditions: Subchronic oral toxicity in rodents, sprague dawley, Feed, dose end: 13 week, group: systemic
mouse [2] = conditions: Subchronic oral toxicity in rodents, cd1, Feed, dose end: 91 day, group: systemic
rat [3] = conditions: Prenatal developmental toxicity study, sprague dawley, Oral, Gavage/Intubation, dose end: 21 GD
dog [4] = conditions: Chronic toxicity, beagle, Oral, Feed, dose end: 52 week, group: systemic
rat [5] = conditions: Subchronic oral toxicity in rodents, sprague dawley, [Not Specified], dose end: 90 day, group: systemic
rat [6] = conditions: Subchronic oral toxicity in rodents, sprague dawley, Feed, dose end: 14 week, group: systemic
rabbit [7] = conditions: Prenatal developmental toxicity study, new zealand white, Oral, Gavage/Intubation, dose end: 28 GD
rat [8] = conditions: Prenatal developmental toxicity study, sprague dawley, Oral, Gavage/Intubation, dose end: 21 GD; remark: listed apart in the source
rat [9] = conditions: Combined chronic toxicity/carcinogenicity, sprague dawley, Oral, Feed, dose end: 24 month, group: systemic
mouse [10] = conditions: Carcinogenicity; cd1; Oral; Feed; dose end: 18 month; group: systemic; systemic / in life observation / body weight / body weight gain + systemic / in life observation / clinical signs / fur (altered appearance…
rat [11] = conditions: Prenatal developmental toxicity study, sprague dawley, Oral, Feed, dose end: 22 GD
rat [12] = conditions: Subchronic oral toxicity in rodents, other, Feed, dose end: 13 week, group: systemic
dog [13] = conditions: Subchronic oral toxicity in nonrodent, beagle, Feed, dose end: 13 week, group: systemic, systemic / hematology / anemia / anemia - hemolytic + systemic / hematology / erythrocyte (rbc) count differential / erythrocyte (rbc) + …
rat [14] = conditions: Prenatal developmental toxicity study, other, Oral, Gavage/Intubation, dose end: 15 GD
rat [15] = conditions: Subchronic oral toxicity in rodents, other, Feed, dose end: 3 month, group: systemic, systemic / clinical chemistry / alkaline phosphatase (alp/alk) / alkaline phosphatase (alp/alk) + systemic / in life observation / body …
rabbit [16] = conditions: Prenatal developmental toxicity study, other, Oral, Gavage/Intubation, dose end: 19 GD
mouse [17] = conditions: Carcinogenicity, other, Oral, Feed, dose end: 18 month, group: systemic
dog [18] = conditions: Chronic toxicity, beagle, Oral, Feed, dose end: 52 week, group: systemic; remark: listed apart in the source
rat [19] = conditions: Combined chronic toxicity/carcinogenicity, sprague dawley, Oral, Feed, dose end: 24 month, group: systemic; remark: listed apart in the source
dog [20] = conditions: Subchronic oral toxicity in nonrodent, beagle, Feed, dose end: 13 week, group: systemic
rat [21] = conditions: Multigenerational reproductive toxicity study, other, Oral, Feed, dose end: 2 generation
[22] = systemic / in life observation / body weight / body weight + systemic / in life observation / body weight / body weight gain + systemic / in…
[23] = systemic / pathology microscopic / spleen / hematopoietic cell proliferation + systemic / pathology microscopic / spleen / pigmentation
[24] = systemic / pathology microscopic / spleen / pigmentation
[25] = group: developmental, systemic / in life observation / body weight / fetal weight
[26] = group: maternal, systemic / in life observation / body weight / body weight + systemic / in life observation / body weight / body weight gain + systemic / in…
[27] = systemic / hematology / erythrocyte (rbc) count differential / erythrocyte (rbc) + systemic / hematology / heinz body / heinz body + …
[28] = systemic / organ weight / liver / absolute + systemic / organ weight / liver / relative to body weight + systemic / organ weight / liver / …
[29] = systemic / hematology / methemoglobin / methemoglobin
[30] = systemic / in life observation / body weight / body weight gain
[31] = systemic / in life observation / body weight / body weight gain + systemic / in life observation / body weight / body weight + systemic / in…
[32] = group: developmental, developmental / developmental malformation / bone / incomplete ossification + systemic / in life observation / body weight / fetal weight
[33] = group: maternal, systemic / in life observation / body weight / body weight gain + systemic / in life observation / food consumption / food consumption
[34] = group: maternal, systemic / in life observation / body weight / body weight gain + systemic / in life observation / food consumption / food consumption + …
[35] = systemic / hematology / erythrocyte (rbc) count differential / erythrocyte (rbc) + systemic / hematology / hematocrit (hct) / hematocrit (…
[36] = group: maternal, systemic / in life observation / body weight / body weight gain
[37] = group: developmental, developmental / developmental malformation / bone / incomplete ossification
[38] = group: developmental, developmental / developmental malformation / bone / incomplete ossification + developmental / developmental malformation / bone / dumbbell …
[39] = group: developmental, developmental / developmental malformation / bone / full supernumerary
[40] = group: developmental, developmental / developmental malformation / bone / full supernumerary + developmental / developmental malformation / bone / extra …
[41] = systemic / in life observation / body weight / body weight + systemic / organ weight / spleen / relative to body weight
[42] = systemic / hematology / anemia / anemia - nos + systemic / clinical chemistry / cholesterol / cholesterol + systemic / clinical chemistry / …
[43] = systemic / pathology microscopic / liver / hypertrophy
[44] = systemic / pathology microscopic / liver / hypertrophy + systemic / clinical chemistry / albumin / albumin + systemic / clinical chemistry…
[45] = systemic / clinical chemistry / alkaline phosphatase (alp/alk) / alkaline phosphatase (alp/alk) + systemic / organ weight / liver / absolute…
[46] = systemic / organ weight / liver / relative to body weight
[47] = group: offspring, developmental / developmental landmark / eye opening / eye opening + systemic / in life observation / body weight / offspring (pup) weight
[48] = group: parental, systemic / organ weight / liver / relative to body weight

## COC(=O)N(C(=O)N1CO[C@@]2(C(=O)OC)Cc3cc(Cl)ccc3C2=N1)c1ccc(OC(F)(F)F)cc1 [Indoxacarb]
Rat [1]; [22]
  LOAEL: 3.78 mg/kg/day
  NOAEL: 2.13 mg/kg/day
Rat [1]; [23]
  LEL: 0.76 mg/kg/day
  NEL: < 0.76 mg/kg/day
Mouse [2]; [22]
  LOAEL: 30 mg/kg/day
  NOAEL: 16 mg/kg/day
Mouse [2]; [24]
  LEL: 12 mg/kg/day
Mouse [2]; systemic / pathology microscopic / spleen / pigmentation + systemic / pathology microscopic / spleen / hyperplasia
  NEL: 5.5 mg/kg/day
Rat [3]; [25]
  LEL: 4 mg/kg/day
  LOAEL: 4 mg/kg/day
  NEL: 2 mg/kg/day
  NOAEL: 2 mg/kg/day
Rat [3]; [26]
  LEL: 4 mg/kg/day
  LOAEL: 4 mg/kg/day
  NEL: 2 mg/kg/day
  NOAEL: 2 mg/kg/day
Dog [4]; [27]
  LOAEL: 18 mg/kg/day
  NOAEL: 2.3 mg/kg/day
Dog [4]; [28]
  LEL: 1.3 mg/kg/day
  NEL: < 1.3 mg/kg/day
Rat [5]; [29]
  LEL: 0.56 mg/kg/day
  NEL: < 0.56 mg/kg/day
Rat [5]; [22]
  LOAEL: 4.1 mg/kg/day
  NOAEL: 1.7 mg/kg/day
Rat [6]; [30]
  LEL: 4.9 mg/kg/day
  LOAEL: 7.5 mg/kg/day
Rat [6]; [31]
  NEL: 2.5 mg/kg/day
  NOAEL: 3.7 mg/kg/day
Rabbit [7]; [32]
  LEL: 1000 mg/kg/day
  LOAEL: 1000 mg/kg/day
  NEL: 500 mg/kg/day
  NOAEL: 500 mg/kg/day
Rabbit [7]; [33]
  LOAEL: 1000 mg/kg/day
Rabbit [7]; [34]
  LEL: 1000 mg/kg/day
  NEL: 500 mg/kg/day
  NOAEL: 500 mg/kg/day
Rat [8]; [25]
  LEL: 500 mg/kg/day
  LOAEL: > 1000 mg/kg/day
  NEL: 100 mg/kg/day
  NOAEL: ≥ 1000 mg/kg/day
Rat [8]; [26]
  LEL: 100 mg/kg/day
  LOAEL: 100 mg/kg/day
  NEL: 10 mg/kg/day
  NOAEL: 10 mg/kg/day
Rat [9]; [35]
  LOAEL: 2.13 mg/kg/day
  NOAEL: 1.04 mg/kg/day
Rat [9]; [24]
  LEL: 0.798 mg/kg/day
Mouse [10]
  LEL: 13.8 mg/kg/day
  LOAEL: 13.8 mg/kg/day
  NEL: 2.63 mg/kg/day
  NOAEL: 2.63 mg/kg/day
Rat [11]; [25]
  LEL: 4.14 mg/kg/day
  LOAEL: 4.14 mg/kg/day
  NEL: 2.18 mg/kg/day
  NOAEL: 2.18 mg/kg/day
Rat [11]; [26]
  LOAEL: 2.18 mg/kg/day
  NOAEL: 1.11 mg/kg/day
Rat [11]; [36]
  LEL: 1.11 mg/kg/day
  NEL: < 1.11 mg/kg/day
Rat [12]; [35]
  LEL: 1.5 mg/kg/day
Rat [12]; [22]
  LOAEL: 6.25 mg/kg/day
  NEL: 0.75 mg/kg/day
  NOAEL: 3 mg/kg/day
Dog [13]
  LEL: 19 mg/kg/day
  LOAEL: 19 mg/kg/day
  NEL: 5 mg/kg/day
  NOAEL: 5 mg/kg/day

## CC1=NNC(=O)N(/N=C/c2cccnc2)C1 [Pymetrozine]
Rat [14]; [37]
  LEL: 30 mg/kg/day
  NEL: < 30 mg/kg/day
Rat [14]; [38]
  LOAEL: 300 mg/kg/day
  NOAEL: 100 mg/kg/day
Rat [14]; [33]
  LEL: 100 mg/kg/day
  LOAEL: 100 mg/kg/day
  NEL: 30 mg/kg/day
  NOAEL: 30 mg/kg/day
Rat [15]
  LEL: 360 mg/kg/day
  LOAEL: 360 mg/kg/day
  NOAEL: 32.5 mg/kg/day
Rabbit [16]; [39]
  LEL: 75 mg/kg/day
  LOAEL: 75 mg/kg/day
Rabbit [16]; [40]
  NEL: 10 mg/kg/day
  NOAEL: 10 mg/kg/day
Rabbit [16]; [34]
  LEL: 75 mg/kg/day
  LOAEL: 75 mg/kg/day
  NEL: 10 mg/kg/day
  NOAEL: 10 mg/kg/day
Mouse [17]; systemic / in life observation / body weight / body weight + systemic / organ weight / liver / relative to body weight + systemic / …
  NOAEL: 12 mg/kg/day
Mouse [17]; [41]
  LEL: 1.2 mg/kg/day
  NEL: < 1.2 mg/kg/day
Mouse [17]; systemic / organ weight / liver / relative to body weight + systemic / pathology microscopic / liver / hypertrophy + systemic / pathology …
  LOAEL: 250 mg/kg/day
Dog [18]; systemic / clinical chemistry / cholesterol / cholesterol + systemic / organ weight / liver / absolute + systemic / organ weight / liver / …
  LEL: 5.33 mg/kg/day
Dog [18]; [42]
  NEL: 0.57 mg/kg/day
  NOAEL: 5.33 mg/kg/day
Dog [18]; systemic / hematology / anemia / anemia - nos + systemic / pathology microscopic / intestine large / [other] + systemic / pathology …
  LOAEL: 27.8 mg/kg/day
Rat [19]; [43]
  LEL: 3.76 mg/kg/day
  LOAEL: 3.76 mg/kg/day
Rat [19]; [44]
  NEL: 0.377 mg/kg/day
  NOAEL: 0.377 mg/kg/day
Dog [20]; [45]
  LOAEL: 14 mg/kg/day
  NOAEL: 3.12 mg/kg/day
Dog [20]; [46]
  LEL: 3.12 mg/kg/day
  NEL: < 3.12 mg/kg/day
Rat [21]; [47]
  LEL: 100 mg/kg/day
  LOAEL: 100 mg/kg/day
  NEL: 10 mg/kg/day
  NOAEL: 10 mg/kg/day
Rat [21]; [48]
  LEL: 1.7 mg/kg/day
  NEL: < 1.7 mg/kg/day
Rat [21]; group: parental, systemic / pathology microscopic / liver / hypertrophy
  LOAEL: 13.9 mg/kg/day
Rat [21]; group: parental, systemic / pathology microscopic / liver / hypertrophy + systemic / in life observation / body weight / body weight + systemic / in life …
  NOAEL: 1.4 mg/kg/day
